One test concerns the target YES (Homo sapiens, UniProt P07947). Description: Kinobeads competition binding, L-363 cell lysate. Details: endogenous in cells. The settings on record: 10 μM free compound, L-363 lysate. The protocol:
(§1) To one aliquot of cell lysate 10 μM of the free compound (FIG. 3, CZC31326) was added and allowed to bind to proteins in the lysate. Then the affinity matrix with the immobilized compound was added to capture proteins that were not interacting with the previously added free compound. Beads were separated from the lysate and bead bound proteins were eluted in SDS sample buffer and subsequently separated by SDS-Polyacrylamide gel electrophoresis (FIG. 8). Suitable gel bands were cut out and subjected to in-gel proteolytic digestion with trypsin. The second lysate aliquot was processed identically, however no free compound was added (DMSO solvent control). Peptides originating from samples 1 and 2 were labeled with iTRAQ reagents (iTRAQ 114 and iTRAQ 117) and the combined samples were analyzed with a nano-flow liquid chromatography system coupled online to a tandem mass spectrometer (LC-MS/MS) experiment followed by iTRAQ reporter ion quantification in the MS/MS spectra as described in Example 2.
(§2) For this experiment the human plasma cell leukaemia line L-363 was used (German Collection of Microorganisms and Cell Cultures, DSMZ number ACC49, Braunschweig, Germany). Cells were treated for three hours with 20 μM of the proteasome inhibitor MG132 (Z-Leu-Leu-Leu-al, Sigma C2211) prior to cell harvesting.

Another test deals with LOK (Homo sapiens, UniProt O94804). Description: Kinobeads competition binding, L-363 cell lysate. Set-up: endogenous in cells. The settings on record: 10 μM free compound, L-363 lysate. The protocol:
as §1, §2

Another test deals with ALK2 (Homo sapiens, UniProt Q04771). Nature of the test: Kinobeads competition binding, L-363 cell lysate. Details: endogenous in cells. The conditions noted are these: 10 μM free compound, L-363 lysate. The protocol: as §1, §2
The target of another test is QIK (Homo sapiens, UniProt Q9H0K1). Nature of the test: Kinobeads competition binding, L-363 cell lysate. Details: endogenous in cells. The settings on record: 10 μM free compound, L-363 lysate. The protocol: as §1, §2
A further test addresses GSK3B (Homo sapiens, UniProt P49841). Description: Kinobeads competition binding, L-363 cell lysate. Details: endogenous in cells. The conditions noted are these: 10 μM free compound, L-363 lysate. The protocol:
as §1, §2

For the next test, the target named is HPK1 (Homo sapiens, UniProt Q92918). Description: Kinobeads competition binding, L-363 cell lysate. Set-up: endogenous in cells. The conditions noted are these: 10 μM free compound, L-363 lysate. The protocol:
as §1, §2

The target of another test is MSK2 (Homo sapiens, UniProt O75676). Nature of the test: Kinobeads competition binding, L-363 cell lysate. Set-up: endogenous in cells. The conditions noted are these: 10 μM free compound, L-363 lysate. The protocol:
as §1, §2

The next test concerns the target T1, ULK3 (Homo sapiens, UniProt Q6PHR2).
T1 sequence (Q6PHR2 1-472): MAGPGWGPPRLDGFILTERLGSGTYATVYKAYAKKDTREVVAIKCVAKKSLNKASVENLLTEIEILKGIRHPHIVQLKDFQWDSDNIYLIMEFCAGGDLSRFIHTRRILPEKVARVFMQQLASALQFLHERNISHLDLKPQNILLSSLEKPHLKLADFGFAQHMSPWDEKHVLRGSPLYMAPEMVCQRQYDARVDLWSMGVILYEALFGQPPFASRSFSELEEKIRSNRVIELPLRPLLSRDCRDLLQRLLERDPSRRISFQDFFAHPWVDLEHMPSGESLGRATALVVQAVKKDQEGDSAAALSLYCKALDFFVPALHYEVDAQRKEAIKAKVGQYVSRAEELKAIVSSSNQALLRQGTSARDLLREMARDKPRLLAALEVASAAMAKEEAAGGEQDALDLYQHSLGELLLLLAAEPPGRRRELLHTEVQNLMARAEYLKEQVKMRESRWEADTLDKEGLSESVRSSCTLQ
Nature of the test: Kinobeads competition binding, HeLa Placenta lysate mix. The settings on record: 10 μM free compound. Set-up: kinases from mixed HeLa placenta lysates; endogenous in cells; host or cells: mixed lysate of HeLa cells and placenta tissue. The protocol:
as §1, with “10).” for “8).”

The target in a further test is Wee1 (Homo sapiens, UniProt P30291). The test is described as above. The settings on record: 10 μM free compound. Set-up: kinases from mixed HeLa placenta lysates; endogenous in cells; host or cells: mixed lysate of HeLa cells and placenta tissue. The protocol:
as §1, with “10).” for “8).”

In a further test the target is TGFbR1 (Homo sapiens, UniProt P36897). The description is as above. Set-up: kinases from mixed HeLa placenta lysates; endogenous in cells; host or cells: mixed lysate of HeLa cells and placenta tissue. The conditions noted are these: 10 μM free compound. The protocol:
as §1, with “10).” for “8).”

The target of another test is JAK2 (Homo sapiens, UniProt O60674). Description: Kinobeads competition binding, L-363 cell lysate. The settings on record: 10 μM free compound, L-363 lysate. Details: Identified kinases with CZC31326 from L-363 cell lysate; endogenous in cells; host or cells: L-363 (MG132-treated). The protocol: as §1, §2
For another test, the target named is IRE1 (Homo sapiens, UniProt O75460). Description: Kinobeads competition binding, L-363 cell lysate. Set-up: Identified kinases with CZC31326 from L-363 cell lysate; endogenous in cells; host or cells: L-363 (MG132-treated). The conditions noted are these: 10 μM free compound, L-363 lysate. The protocol: as §1, §2
The target in a further test is JAK1 (Homo sapiens, UniProt P23458). Description: Kinobeads competition binding, L-363 cell lysate. The conditions noted are these: 10 μM free compound, L-363 lysate. Set-up: Identified kinases with CZC31326 from L-363 cell lysate; endogenous in cells; host or cells: L-363 (MG132-treated). The protocol:
as §1, §2

The target of another test is JNK2 (Homo sapiens, UniProt P45984). Description: Kinobeads competition binding, L-363 cell lysate. Set-up: Identified kinases with CZC31326 from L-363 cell lysate; endogenous in cells; host or cells: L-363 (MG132-treated). The settings on record: 10 μM free compound, L-363 lysate. The protocol: as §1, §2
Chain of JNK2 (P45984 whole entry): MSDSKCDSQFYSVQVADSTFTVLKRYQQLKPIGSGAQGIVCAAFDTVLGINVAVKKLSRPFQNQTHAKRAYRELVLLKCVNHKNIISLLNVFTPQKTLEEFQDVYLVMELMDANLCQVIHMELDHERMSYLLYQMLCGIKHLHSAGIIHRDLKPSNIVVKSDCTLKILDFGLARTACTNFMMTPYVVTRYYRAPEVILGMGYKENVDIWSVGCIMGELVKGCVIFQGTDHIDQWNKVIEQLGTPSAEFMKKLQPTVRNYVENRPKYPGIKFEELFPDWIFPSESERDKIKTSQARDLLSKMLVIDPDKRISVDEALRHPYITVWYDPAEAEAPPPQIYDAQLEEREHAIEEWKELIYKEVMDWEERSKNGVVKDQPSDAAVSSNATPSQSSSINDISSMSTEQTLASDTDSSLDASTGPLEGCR

Chain of MSK2 (O75676 whole entry): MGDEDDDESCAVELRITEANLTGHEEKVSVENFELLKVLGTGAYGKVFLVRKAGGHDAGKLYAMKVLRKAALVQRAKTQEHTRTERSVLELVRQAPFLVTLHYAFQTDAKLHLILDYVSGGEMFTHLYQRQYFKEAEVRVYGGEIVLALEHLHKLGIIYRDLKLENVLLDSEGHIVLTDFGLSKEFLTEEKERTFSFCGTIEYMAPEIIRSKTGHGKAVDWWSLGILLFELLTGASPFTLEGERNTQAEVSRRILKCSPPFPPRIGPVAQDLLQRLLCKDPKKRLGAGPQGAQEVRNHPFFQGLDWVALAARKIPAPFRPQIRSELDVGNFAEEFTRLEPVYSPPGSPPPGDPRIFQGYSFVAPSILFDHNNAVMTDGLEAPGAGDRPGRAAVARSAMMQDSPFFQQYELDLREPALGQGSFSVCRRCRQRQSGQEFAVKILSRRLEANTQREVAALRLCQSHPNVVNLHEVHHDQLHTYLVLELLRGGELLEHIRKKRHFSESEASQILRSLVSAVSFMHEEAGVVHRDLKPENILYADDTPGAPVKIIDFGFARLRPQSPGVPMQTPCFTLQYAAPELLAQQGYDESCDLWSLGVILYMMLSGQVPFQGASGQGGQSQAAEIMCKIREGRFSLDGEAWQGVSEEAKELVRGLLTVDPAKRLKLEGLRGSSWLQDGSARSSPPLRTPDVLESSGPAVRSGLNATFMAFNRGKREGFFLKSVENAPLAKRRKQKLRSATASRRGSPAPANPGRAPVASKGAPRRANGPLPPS
Chain of Wee1 (P30291 whole entry): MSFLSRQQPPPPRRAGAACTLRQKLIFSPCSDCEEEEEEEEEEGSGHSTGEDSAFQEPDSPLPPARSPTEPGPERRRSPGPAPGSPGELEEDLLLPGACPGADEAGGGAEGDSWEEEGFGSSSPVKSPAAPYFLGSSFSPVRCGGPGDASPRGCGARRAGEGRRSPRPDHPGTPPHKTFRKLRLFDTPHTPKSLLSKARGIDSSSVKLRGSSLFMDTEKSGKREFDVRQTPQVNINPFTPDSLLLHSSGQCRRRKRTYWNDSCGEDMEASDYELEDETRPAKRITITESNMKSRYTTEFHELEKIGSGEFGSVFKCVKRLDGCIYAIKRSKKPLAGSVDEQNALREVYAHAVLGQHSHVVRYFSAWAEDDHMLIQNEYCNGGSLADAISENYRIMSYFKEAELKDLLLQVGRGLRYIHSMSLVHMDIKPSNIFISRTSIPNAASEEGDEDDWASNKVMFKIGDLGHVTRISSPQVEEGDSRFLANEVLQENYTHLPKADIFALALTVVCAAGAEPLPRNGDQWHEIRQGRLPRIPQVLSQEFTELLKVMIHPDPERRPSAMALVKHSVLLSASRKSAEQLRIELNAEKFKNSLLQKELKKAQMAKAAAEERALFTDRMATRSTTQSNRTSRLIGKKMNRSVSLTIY
Chain of LOK (O94804 whole entry): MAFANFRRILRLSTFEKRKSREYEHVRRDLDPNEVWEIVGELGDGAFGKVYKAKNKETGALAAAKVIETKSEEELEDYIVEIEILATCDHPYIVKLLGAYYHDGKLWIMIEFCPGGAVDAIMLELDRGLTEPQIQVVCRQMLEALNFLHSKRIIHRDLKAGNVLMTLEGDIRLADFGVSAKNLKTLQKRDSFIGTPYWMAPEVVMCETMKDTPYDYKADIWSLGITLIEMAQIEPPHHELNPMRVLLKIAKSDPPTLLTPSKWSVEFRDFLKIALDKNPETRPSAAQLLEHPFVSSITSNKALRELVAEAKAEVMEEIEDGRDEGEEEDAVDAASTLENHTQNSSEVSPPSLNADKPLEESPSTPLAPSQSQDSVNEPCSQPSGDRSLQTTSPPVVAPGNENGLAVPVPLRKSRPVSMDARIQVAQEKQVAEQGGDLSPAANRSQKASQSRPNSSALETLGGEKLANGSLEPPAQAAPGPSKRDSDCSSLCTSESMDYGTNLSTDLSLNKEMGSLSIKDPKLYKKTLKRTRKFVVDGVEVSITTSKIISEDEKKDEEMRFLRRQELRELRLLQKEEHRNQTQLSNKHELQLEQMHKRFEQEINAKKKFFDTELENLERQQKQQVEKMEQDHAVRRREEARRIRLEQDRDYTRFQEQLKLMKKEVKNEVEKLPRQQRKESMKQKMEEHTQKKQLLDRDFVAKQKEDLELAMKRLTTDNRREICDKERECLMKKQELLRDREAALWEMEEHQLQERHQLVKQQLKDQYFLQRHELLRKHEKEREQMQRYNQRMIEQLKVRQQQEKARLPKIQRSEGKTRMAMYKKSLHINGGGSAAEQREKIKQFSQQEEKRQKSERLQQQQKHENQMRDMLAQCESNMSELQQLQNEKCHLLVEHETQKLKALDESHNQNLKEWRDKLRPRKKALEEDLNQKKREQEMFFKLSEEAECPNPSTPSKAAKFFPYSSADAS
Chain of IRE1 (O75460 19-977): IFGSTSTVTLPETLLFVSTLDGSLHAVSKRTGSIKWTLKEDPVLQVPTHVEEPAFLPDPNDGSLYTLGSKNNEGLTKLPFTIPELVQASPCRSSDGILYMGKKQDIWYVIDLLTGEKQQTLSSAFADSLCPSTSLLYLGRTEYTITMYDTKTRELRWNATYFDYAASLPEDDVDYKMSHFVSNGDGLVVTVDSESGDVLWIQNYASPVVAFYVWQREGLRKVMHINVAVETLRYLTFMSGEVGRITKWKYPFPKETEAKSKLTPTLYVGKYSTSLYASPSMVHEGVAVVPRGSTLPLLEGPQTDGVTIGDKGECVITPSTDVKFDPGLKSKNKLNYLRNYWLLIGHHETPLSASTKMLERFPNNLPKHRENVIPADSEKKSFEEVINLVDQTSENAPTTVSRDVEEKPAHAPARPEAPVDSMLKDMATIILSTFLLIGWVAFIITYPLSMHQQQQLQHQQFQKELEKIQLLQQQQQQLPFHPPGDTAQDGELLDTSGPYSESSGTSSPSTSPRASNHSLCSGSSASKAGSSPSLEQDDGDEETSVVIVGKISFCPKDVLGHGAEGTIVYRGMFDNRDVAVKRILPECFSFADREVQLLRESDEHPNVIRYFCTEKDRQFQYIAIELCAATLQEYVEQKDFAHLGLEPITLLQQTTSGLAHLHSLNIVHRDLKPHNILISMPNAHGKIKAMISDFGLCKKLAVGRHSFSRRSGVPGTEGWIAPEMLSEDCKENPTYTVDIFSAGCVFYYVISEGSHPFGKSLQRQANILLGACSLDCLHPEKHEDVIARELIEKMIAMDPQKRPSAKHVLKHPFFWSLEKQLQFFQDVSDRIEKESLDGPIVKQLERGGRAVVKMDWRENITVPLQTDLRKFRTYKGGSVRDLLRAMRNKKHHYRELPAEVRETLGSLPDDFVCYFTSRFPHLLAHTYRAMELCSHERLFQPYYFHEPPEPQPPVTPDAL
Chain of HPK1 (Q92918 whole entry): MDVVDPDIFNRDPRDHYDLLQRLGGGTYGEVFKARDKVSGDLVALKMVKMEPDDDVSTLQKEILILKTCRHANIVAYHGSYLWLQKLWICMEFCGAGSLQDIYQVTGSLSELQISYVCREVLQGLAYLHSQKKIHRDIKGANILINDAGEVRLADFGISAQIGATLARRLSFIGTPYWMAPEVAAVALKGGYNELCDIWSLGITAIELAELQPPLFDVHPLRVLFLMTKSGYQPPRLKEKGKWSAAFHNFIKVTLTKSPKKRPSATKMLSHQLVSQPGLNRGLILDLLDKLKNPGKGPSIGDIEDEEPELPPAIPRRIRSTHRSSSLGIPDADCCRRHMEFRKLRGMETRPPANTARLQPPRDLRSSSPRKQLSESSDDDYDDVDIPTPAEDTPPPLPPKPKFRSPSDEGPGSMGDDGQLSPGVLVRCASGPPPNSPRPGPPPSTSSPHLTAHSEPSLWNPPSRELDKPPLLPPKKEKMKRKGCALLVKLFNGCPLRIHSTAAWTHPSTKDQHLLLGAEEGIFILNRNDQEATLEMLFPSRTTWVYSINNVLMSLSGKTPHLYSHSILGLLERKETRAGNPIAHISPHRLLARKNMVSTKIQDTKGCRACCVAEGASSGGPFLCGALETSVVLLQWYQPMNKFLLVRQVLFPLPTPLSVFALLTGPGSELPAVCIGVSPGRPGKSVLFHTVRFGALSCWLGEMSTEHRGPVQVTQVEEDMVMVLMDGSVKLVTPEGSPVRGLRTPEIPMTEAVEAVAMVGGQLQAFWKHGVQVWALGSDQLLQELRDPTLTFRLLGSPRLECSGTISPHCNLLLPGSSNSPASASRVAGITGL
Chain of GSK3B (P49841 whole entry): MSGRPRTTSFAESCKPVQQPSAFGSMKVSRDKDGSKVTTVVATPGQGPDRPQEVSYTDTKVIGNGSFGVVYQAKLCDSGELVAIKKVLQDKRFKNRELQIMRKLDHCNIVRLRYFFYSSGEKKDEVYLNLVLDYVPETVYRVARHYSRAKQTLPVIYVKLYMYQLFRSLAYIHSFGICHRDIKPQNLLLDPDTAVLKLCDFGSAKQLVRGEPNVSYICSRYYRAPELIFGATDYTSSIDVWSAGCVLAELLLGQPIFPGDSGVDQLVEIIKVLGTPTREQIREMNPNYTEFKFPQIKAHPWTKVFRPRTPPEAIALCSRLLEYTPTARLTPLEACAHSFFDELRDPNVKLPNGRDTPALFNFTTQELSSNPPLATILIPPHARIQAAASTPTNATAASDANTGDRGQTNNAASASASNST

Regarding `CS(=O)(=O)Nc1ccccc1Nc1nc(Nc2cccc(OCCN)c2)ncc1Cl` [CZC31326, N-(2-(2-(3-(2-aminoethoxy)phenylamino)-5-chloropyrimidin-4-ylamino)phenyl)methanesulfonamide], the inhibition at 10 µM on YES stood at 89.6%; at ALK2, 95.7%; on QIK, 96.5%; at GSK3B it was 94.6%; on HPK1, 98%; at MSK2, 94.2%. Further, the inhibition at 10 µM on Wee1 was 95.2%; at TGFbR1, 90.8%; at IRE1 it was 97.9%. For the same compound, the Competition % was determined as 86.9% at LOK; 94.6% at ULK3; 96.1% on JAK2; 97.2% on JAK1; 88% at JNK2.

The inhibition is the drop in the measured response relative to a control, in per cent. Read a high inhibition as a response far below the control.

These data come from patent US20120270237A9, “METHODS FOR THE IDENTIFICATION OF KINASE INTERACTING MOLECULES AND FOR THE PURIFICATION OF KINASE PROTEINS” (Cellzone AG, priority 2009, published 2012).
